Results from PubChem BioAssay AID652069 (The Scripps Research Institute Molecular Screening Center, 2013).
The source made the active and inactive calls.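 The calls were made as follows: active = growth ratio of SRC-3 knockout over parental cells of 1.2 or more, reached at 10 µM or lower; inactive = the rest.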

Tested on: HeLa SRC-3 KO vs WT growth ratio, MTT, 5 d
Assay: SRC-3 dependent HeLa growth inhibition selectivity, late-stage follow-up, selectivity assay for SRC-1/SRC-3 inhibitor project, cell-based, zinc finger nuclease knockout, MTT (AID 652069)
Conditions: at 10 µM (top of the series)

Structure (SMILES)	KO/WT growth ratio, higher = selective
Cc1c(/C(O)=C2/C(=O)C(=O)N(Cc3cccnc3)C2c2ccccn2)cnn1-c1ccccc1 (stereo unspecified)	0.966 (inactive)
Cc1ccc(N=c2c([N+](=O)[O-])nn(-c3ccc4c(c3)OCCO4)n2O)c(Cl)c1	1.06 (inactive)
O=[N+]([O-])c1nn(-c2ccc3c(c2)OCCO3)n(O)c1=Nc1ccccc1	0.918 (inactive)
Cn1nc(C(F)(F)F)c(C#N)c1N1CCN(c2ccc(F)cc2)CC1	0.976 (inactive)
NS(=O)(=O)c1ccc(Nc2nc(-c3cccnc3)cs2)cc1	0.928 (inactive)
CCOC(=O)C(=CNc1ccc(NC2=NCC(C)S2)cc1)C(=O)OCC (stereo unspecified)	1 (inactive)
Cc1cc(C)cc(N=c2c([N+](=O)[O-])nn(-c3ccc4c(c3)OCCO4)n2O)c1	0.985 (inactive)
CN(C)c1ccc(CNC(=O)CCNS(=O)(=O)c2cc(Br)cnc2N)cc1	1.04 (inactive)
O=C(Nc1nc2ccccc2s1)C1c2ccccc2Oc2ccccc21	1.05 (inactive)
Cc1ccc(/C=C2/SC(=S)N(CCCC(=O)Nc3ccc(O)cc3)C2=O)cc1	1.11 (inactive)
O=C1CCC2S/C(=C/Nc3ccc(C(F)(F)F)cc3)C(=O)N12 (stereo unspecified)	1.02 (inactive)
O=C(CCCc1nc(-c2ccccc2Cl)no1)NC1CCCC1	1.06 (inactive)
Cc1ccc(N=c2c([N+](=O)[O-])nn(-c3ccc4c(c3)OCCO4)n2O)cc1F	1.02 (inactive)
COc1cc2c(cc1OC)C(NC(=O)C(F)(F)F)CNC2=O (stereo unspecified)	1.47
COc1ccc(/C=C2/SC(=S)N(CCC(=O)O)C2=O)cc1	1.07 (inactive)
COc1cc(C2c3cc4c(cc3C(OC3OC5COC(c6cccs6)OC5C(O)C3O)C3COC(=O)C23)OCO4)cc(OC)c1O (stereo unspecified)	1.2
Cc1cc(N=c2c([N+](=O)[O-])nn(-c3ccc4c(c3)OCCO4)n2O)ccc1Br	0.974 (inactive)
O=[N+]([O-])c1nn(-c2ccc3c(c2)OCCO3)n(O)c1=Nc1ccc(Cl)cc1	0.995 (inactive)
S=C(Nc1ccccc1)Nc1ccc(OCc2ccc(Cl)cc2Cl)cc1	1.05 (inactive)
Cc1cccc(NC(=O)c2cc(Cl)ccc2[N+](=O)[O-])c1	1.09 (inactive)
O=C(O)CN1C(=O)/C(=C\c2ccccc2OCc2ccc(Cl)cc2Cl)SC1=S	1.02 (inactive)
Cc1c(Cl)cccc1N=c1c([N+](=O)[O-])nn(-c2ccc3c(c2)OCCO3)n1O	1.03 (inactive)
O=C(Nc1cccnc1)c1ccc(C(=O)Nc2cccnc2)cc1	1.07 (inactive)
CC(=O)N1CCN(c2ncnc3ccccc23)CC1	0.988 (inactive)
CCc1ccc(N=c2c([N+](=O)[O-])nn(-c3ccc4c(c3)OCCO4)n2O)cc1	0.982 (inactive)
O=[N+]([O-])c1cccc2c1ccc1ncccc12	1.09 (inactive)

Structure (SMILES)	KO/WT growth ratio, higher = selective
NC(=S)NN=C1CCSc2ccc(Cl)cc21	1.09 (inactive)
CCc1ccc(/C=C2\SC(=S)N(CCCC(=O)NCCCN3CCOCC3)C2=O)cc1	0.974 (inactive)
CC(C)n1c(SCC(=O)Nc2nc3c(s2)CCCC3)nc2c1c(=O)n(C)c(=O)n2C	1.03 (inactive)
COC(=O)c1c(C)n(-c2ccc(OC)cc2)c2ccc(O)cc12	1.01 (inactive)
O=C(Nc1nc(-c2ccccn2)cs1)c1cccc(S(=O)(=O)N2CCOCC2)c1	1.23
Cc1ccc(OCC(=O)c2cc(C)n(-c3ccccc3)c2C)c([N+](=O)[O-])n1	0.934 (inactive)
COc1cc(N=c2c([N+](=O)[O-])nn(-c3ccc4c(c3)OCCO4)n2O)cc(OC)c1	1.09 (inactive)
O=C(COC(=O)c1ccc[nH]c1=O)Nc1ccc(N2CCCCC2)cc1	0.954 (inactive)
CCCCC(=O)Nc1cccn2ncnc12	0.954 (inactive)
NC(=O)c1sc2nc3c(c(-c4ccco4)c2c1N)CCC3	1.23
Cc1cc(/C=C2\Cc3ccccc3C2=O)c(C)n1-c1ccccc1	1.01 (inactive)
CCOc1ccc(/C=C2\SC(=S)N(CCCC(=O)NCCCN3CCOCC3)C2=O)cc1	1.03 (inactive)
CCC(=O)N1CCN(c2ccnc3cc(Cl)ccc23)CC1	1.11 (inactive)
S=C(c1ccc(-c2ccccc2)cc1)N1CCOCC1	0.918 (inactive)
CC(=O)/C(N=Nc1ccc2c(c1)OCCO2)=C(/C)O	1.02 (inactive)
Cc1ccc(OCC(=O)c2cc(C)n(Cc3cccs3)c2C)c([N+](=O)[O-])n1	0.969 (inactive)
O=C(CCl)NC(Cc1ccccc1)c1ccccc1 (stereo unspecified)	1.07 (inactive)
CC(C)N(c1ccccc1)c1ccc(NC(=O)CCl)cc1	1.07 (inactive)
Cc1nn(CC(=O)N2CCN(c3cccc(C(F)(F)F)c3)CC2)c(=O)c2cccn12	1.09 (inactive)
c1ccc(-c2nnc(-c3ccccn3)nc2NC2CCCCC2)cc1	1.01 (inactive)
O=C(CCl)N1N=C(c2ccco2)CC1c1cccs1 (stereo unspecified)	2.05
O=C(CCl)N1N=C(c2ccco2)CC1c1ccco1 (stereo unspecified)	1.42
O=C(NC(NC(=S)N1CCOCC1)C(Cl)(Cl)Cl)c1ccc(Cl)cc1 (stereo unspecified)	1.05 (inactive)
Cc1c(CC(=O)NCCCC(=O)O)c(=O)oc2cc3c(cc12)CCC(C)(C)O3	1.04 (inactive)
Cc1ccc(/C=C2\SC(=S)N(CCCC(=O)NC3CCCC3)C2=O)cc1	0.962 (inactive)
